{"source": "patent US12285450B2", "about": "“Lactiplantibacillus plantarum effectively inhibiting multi-drug-resistant Klebsiella pneumoniae and use thereof” (priority 2023, dated 2025)", "system": "Klebsiella pneumoniae ZFM4", "assay": "Antibiotic resistance of ZFM4 by disk diffusion method", "type": "cell-based", "conditions": "for antibiotic resistance of ZFM4 (in words): disk diffusion method", "protocol": "The antibiotic susceptibility test disk was purchased from Hangzhou Microbial Reagent Co., Ltd., including amoxicillin, cefuroxime, gentamycin, erythromycin, vancomycin, tetracycline, penicillin, ciprofloxacin, streptomycin, and chloramphenicol.\nThe antibiotic resistance of Klebsiella pneumoniae ZFM4 was evaluated by disk diffusion method. 100 μL of the second-generation bacterial culture of Klebsiella pneumoniae ZFM4 was coated on LB solid medium and the antibiotic susceptibility test disk was placed on the plate. After aerobically incubation at 37° C. for 48 hrs, the diameter of the inhibition zone was measured. […] That is, Klebsiella pneumoniae ZFM4 had multiple drug resistance.", "note": "Where two headings read alike, the source gives them in different places.", "data": [{"compound": "CC1(C)S[C@@H]2[C@H](NC(=O)[C@H](N)c3ccc(O)cc3)C(=O)N2[C@H]1C(=O)O", "note": "[Amoxicillin]", "values": [{"measurement": "zone of inhibition at 25 µg/disc", "setting": "Klebsiella pneumoniae, ZFM4, Amoxicillin disk 25 μg/tablet, 37° C., 48 hrs, read-out: Drug resistance evaluation result", "value": "< 13", "unit": "mm"}, {"measurement": "antibiotic resistance of ZFM4 (in words)", "value": "resistant"}]}, {"compound": "CO/N=C(\\C(=O)N[C@@H]1C(=O)N2C(C(=O)O)=C(COC(N)=O)CS[C@H]12)c1ccco1", "note": "[Cefuroxime]", "values": [{"measurement": "zone of inhibition at 30 µg/disc", "setting": "Klebsiella pneumoniae, ZFM4, Cefuroxime disk 30 μg/tablet, 37° C., 48 hrs, read-out: Drug resistance evaluation result", "value": "< 10", "unit": "mm"}, {"measurement": "antibiotic resistance of ZFM4 (in words)", "value": "resistant"}]}, {"compound": "O=C(N[C@H](CO)[C@H](O)c1ccc([N+](=O)[O-])cc1)C(Cl)Cl", "note": "[Chloramphenicol]", "values": [{"measurement": "zone of inhibition at 30 µg/disc", "setting": "Klebsiella pneumoniae, ZFM4, Chloramphenicol disk 30 μg/tablet, 37° C., 48 hrs, read-out: Drug resistance evaluation result", "value": "< 12", "unit": "mm"}, {"measurement": "antibiotic resistance of ZFM4 (in words)", "value": "resistant"}]}, {"compound": "O=C(O)c1cn(C2CC2)c2cc(N3CCNCC3)c(F)cc2c1=O", "note": "[Ciprofloxacin]", "values": [{"measurement": "zone of inhibition at 5 µg/disc", "setting": "Klebsiella pneumoniae, ZFM4, Ciprofloxacin disk 5 μg/tablet, 37° C., 48 hrs, read-out: Drug resistance evaluation result", "value": "15 to 21", "unit": "mm"}, {"measurement": "antibiotic resistance of ZFM4 (in words)", "value": "moderately resistant"}]}, {"compound": "CC[C@H]1OC(=O)[C@H](C)[C@@H](O[C@H]2C[C@@](C)(OC)[C@@H](O)[C@H](C)O2)[C@H](C)[C@@H](O[C@@H]2O[C@H](C)C[C@H](N(C)C)[C@H]2O)[C@](C)(O)C[C@@H](C)C(=O)[C@H](C)[C@@H](O)[C@]1(C)O", "note": "[Erythromycin]", "values": [{"measurement": "zone of inhibition at 15 µg/disc", "setting": "Klebsiella pneumoniae, ZFM4, Erythromycin disk 15 μg/tablet, 37° C., 48 hrs, read-out: Drug resistance evaluation result", "value": "< 13", "unit": "mm"}, {"measurement": "antibiotic resistance of ZFM4 (in words)", "value": "resistant"}]}, {"compound": "[H]/N=C(/N)N[C@H]1[C@H](O)[C@@H](O)[C@H](O[C@@H]2O[C@@H](C)[C@](O)(C=O)[C@H]2O[C@@H]2O[C@@H](CO)[C@H](O)[C@@H](O)[C@@H]2NC)[C@@H](N/C(N)=N\\[H])[C@@H]1O", "note": "[Streptomycin]", "values": [{"measurement": "zone of inhibition at 10 µg/disc", "setting": "Klebsiella pneumoniae, ZFM4, Streptomycin disk 10 μg/tablet, 37° C., 48 hrs, read-out: Drug resistance evaluation result", "value": "11 to 15", "unit": "mm"}, {"measurement": "antibiotic resistance of ZFM4 (in words)", "value": "moderately resistant"}]}, {"compound": "CN(C)[C@@H]1C(O)=C(C(N)=O)C(=O)[C@@]2(O)C(O)=C3C(=O)c4c(O)cccc4[C@@](C)(O)[C@H]3C[C@@H]12", "note": "[Tetracycline]", "values": [{"measurement": "zone of inhibition at 30 µg/disc", "setting": "Klebsiella pneumoniae, ZFM4, Tetracycline disk 30 μg/tablet, 37° C., 48 hrs, read-out: Drug resistance evaluation result", "value": "> 15", "unit": "mm"}]}, {"compound": "CN[C@H](CC(C)C)C(=O)N[C@H]1C(=O)N[C@@H](CC(N)=O)C(=O)N[C@H]2C(=O)N[C@H]3C(=O)N[C@H](C(=O)N[C@H](C(=O)O)c4cc(O)cc(O)c4-c4cc3ccc4O)[C@H](O)c3ccc(c(Cl)c3)Oc3cc2cc(c3O[C@@H]2O[C@H](CO)[C@@H](O)[C@H](O)[C@H]2O[C@H]2C[C@](C)(N)[C@H](O)[C@H](C)O2)Oc2ccc(cc2Cl)[C@H]1O", "note": "[Vancomycin]", "values": [{"measurement": "zone of inhibition at 30 µg/disc", "setting": "Klebsiella pneumoniae, ZFM4, 48 h, read-out: Drug resistance evaluation result", "value": "< 14", "unit": "mm"}, {"measurement": "antibiotic resistance of ZFM4 (in words)", "value": "resistant"}]}, {"compound": "Gentamicin", "values": [{"measurement": "Drug resistance evaluation result", "setting": "Gentamicin disk 10 μg/tablet, 37° C., 48 hrs", "value": "R (≤12)"}, {"measurement": "antibiotic resistance of ZFM4 (in words)", "value": "resistant"}]}, {"compound": "Penicillin", "values": [{"measurement": "Drug resistance evaluation result", "setting": "Penicillin disk 10 μg/tablet, 37° C., 48 hrs", "value": "R (≤14)"}, {"measurement": "antibiotic resistance of ZFM4 (in words)", "value": "resistant"}]}]}
